Assay results taken from ChEMBL document CHEMBL4304763 (Eur J Med Chem, 2019).
Active and inactive are the calls of the source. No cut-off for these calls is given here.

Columns and labels:
[1] = system: MCF7; test: cells; conditions: Homo sapiens
[2] = system: T47D; test: cells; conditions: Homo sapiens
[3] = system: COLO 205; test: cells; conditions: Homo sapiens
[4] = system: A549; test: cells; conditions: Homo sapiens
[5] = system: ZR-75-1; test: cells; conditions: Homo sapiens
[6] = system: MCF7; format: functional, Homo sapiens; conditions: at 50 mg/kg
[7] = system: COLO 205; conditions: Homo sapiens
[8] = system: U-87 MG; test: cells; conditions: Homo sapiens
[9] = system: U-251; test: cells; conditions: Homo sapiens
[10] = system: HepG2; test: cells; conditions: Homo sapiens
[11] = system: SNU-5; test: cells; conditions: Homo sapiens
[12] = system: NCI-N87; test: cells; conditions: Homo sapiens
[13] = system: NCI-H1975; test: cells; conditions: Homo sapiens
[14] = system: NCI-H1993; test: cells; conditions: Homo sapiens
[15] = system: CFPAC-1; test: cells; conditions: Homo sapiens
[16] = system: PANC-1; test: cells; conditions: Homo sapiens
[17] = system: BXPC-3; test: cells; conditions: Homo sapiens
[18] = system: LNCaP; test: cells; conditions: Homo sapiens
[19] = system: PC-3; test: cells; conditions: Homo sapiens
[20] = in vivo; conditions: BALB/c, mouse, iv, 3 mg/kg
[21] = in vivo; conditions: BALB/c, mouse, iv, 3 mg/kg; remark: listed apart in the source
[22] = in vivo; conditions: BALB/c, mouse, iv, 3 mg/kg; remark: listed apart in the source
[23] = in vivo; conditions: BALB/c, mouse, iv, 3 mg/kg; remark: listed apart in the source
[24] = in vivo; conditions: BALB/c, mouse, iv, 3 mg/kg; remark: listed apart in the source
[25] = in vivo; conditions: BALB/c, mouse, po, 10 mg/kg
[26] = in vivo; conditions: BALB/c, mouse, po, 10 mg/kg; remark: listed apart in the source
[27] = in vivo; conditions: BALB/c, mouse, po, 10 mg/kg; remark: listed apart in the source
[28] = in vivo; conditions: BALB/c, mouse, po, 10 mg/kg; remark: listed apart in the source
[29] = in vitro; conditions: human, microsomes
[30] = in vitro; conditions: mouse, microsomes
[31] = in vitro; conditions: rat, microsomes
[32] = in vitro; conditions: dog, microsomes
[33] = in vitro; conditions: rhesus monkey, microsomes
[34] = in vitro; conditions: human, microsomes; remark: listed apart in the source
[35] = in vitro; conditions: mouse, microsomes; remark: listed apart in the source
[36] = in vitro; conditions: rat, microsomes; remark: listed apart in the source
[37] = in vitro; conditions: dog, microsomes; remark: listed apart in the source
[38] = in vitro; conditions: rhesus monkey, microsomes; remark: listed apart in the source

With `Cc1nc2c(F)cc(-c3nc(Nc4ccc5c(n4)CCN(CCN(C)P(C)(C)=O)C5)ncc3F)cc2n1C(C)C` the IC50 [1] was 551 nM, the IC50 [2] was 29 nM and the IC50 [3] was 387 nM. The IC50 [4] was 934 nM.

`CCOP(=O)(OCC)N(C)CCN1CCc2nc(Nc3ncc(F)c(-c4cc(F)c5nc(C)n(C(C)C)c5c4)n3)ccc2C1` gave an IC50 [1] of 150 nM, an IC50 [5] of 453 nM and an IC50 [3] of 911 nM. It also gave an IC50 [4] of 1060 nM.

Work on `C/C(=N\O)N(C)CCN1CCc2nc(Nc3ncc(F)c(-c4cc(F)c5nc(C)n(C(C)C)c5c4)n3)ccc2C1` yielded an IC50 [1] of 193 nM, an IC50 [2] of 62.5 nM and an IC50 [5] of 121 nM. The IC50 [3] was 125 nM and the IC50 [4] was 423 nM.

With `CCN1CCN(Cc2ccc(Nc3ncc(F)c(-c4cc(F)c5nc(C)n(C(C)C)c5c4)n3)nc2)CC1` [ABEMACICLIB] the T/C [6] was 37%, the TGI [7] was “Active” and the IC50 [8] was 706 nM. It also gave an IC50 [9] of 294 nM, an IC50 [10] of 216 nM and an IC50 [11] of 523 nM. For the same molecule, the IC50 [12] was 519 nM, the IC50 [13] was 774 nM and the IC50 [14] was 1160 nM. It also gave an IC50 [15] of 371 nM, an IC50 [16] of 701 nM and an IC50 [17] of 127 nM. The IC50 [18] was 84 nM, the IC50 [19] was 9.21 µM and the Cmax at 24 h [20] was 765 ng/mL. It also gave an AUC(0-t) at 24 h [21] of 830 ng·h/mL, a half-life at 24 h [22] of 325 min and a Vd at 24 h [23] of 8.24 L/kg. The clearance at 24 h [24] was 60 mL/min/kg, the Cmax at 24 h [25] was 577 ng/mL and the AUC(0-t) at 24 h [26] was 2170 ng·h/mL. The half-life at 24 h [27] was 283 min, the bioavailability at 24 h [28] was 78.6% and the half-life at 1 h [29] was 8.15 min. The half-life at 1 h [30] was 8.25 min, the half-life at 1 h [31] was 231 min and the half-life at 1 h [32] was 17.8 min. For the same molecule, the half-life at 1 h [33] was 3.96 min, the microsomal CLint at 1 h [34] was 170 µL/min/mg and the microsomal CLint at 1 h [35] was 168 µL/min/mg. The microsomal CLint at 1 h [36] was 6 µL/min/mg, the microsomal CLint at 1 h [37] was 78 µL/min/mg and the microsomal CLint at 1 h [38] was 350 µL/min/mg.
